Measured values published in BigSolDB 2.1.

CCCSc1ccc2nc(NC(=O)OC)[nH]c2c1
solubility (mole fraction)
Conditions	278.15 K	283.15 K	288.15 K	293.15 K	298.15 K	303.15 K	308.15 K	313.15 K	318.15 K	323.15 K
in acetone	0.00151	0.0018	0.00213	0.00254	0.00297	0.00344	0.00402	0.00463	0.00535	0.00613
in isopropanol	0.000106	0.00013	0.000158	0.000192	0.000229	0.000276	0.00033	0.000388	0.000453	0.000532
in methanol	8.85e-05	0.000109	0.000132	0.000159	0.000193	0.00023	0.000273	0.000327	0.000381	0.000448
in water	1.59e-07	2.16e-07	2.9e-07	3.99e-07	5.31e-07	6.93e-07	9.18e-07	1.19e-06	1.56e-06	1.98e-06
